Data on one compound can be found in ChEMBL document CHEMBL4814069, “Nucleotide analogues containing a pyrrolidine, piperidine or piperazine ring: Synthesis and evaluation of inhibition of plasmodial and human 6-oxopurine phosphoribosyltransferases and in vitro antimalarial activity” (Eur J Med Chem, 2021).

As usually defined, the IC50 is the concentration that gives 50% inhibition.

The structures appear in SMILES notation.

The test system of one data set is HL-60. Nature of the data set: Cytotoxicity against human HL60 cells assessed as reduction in cell viability at 10 uM incubated for 72 hrs by Celltiter-Glo assay. In kind it is cell-based. Conditions: hl-60, 72 h. (In general: Cellular ATP, detected with luciferase, serves as a proxy for viable cell number.)
Data set [1] concerns NHDF. The data set is described as follows: Cytotoxicity against human NHDF cells assessed as reduction in cell viability at 50 uM incubated for 72 hrs by Celltiter-Glo assay. In kind it is cell-based.
For data set [2], the system named is Plasmodium falciparum. Nature of the data set: Antimalarial activity against asexual stage of chloroquine-resistant Plasmodium falciparum W2 infected in human erythrocytes assessed as parasite growth inhibition measured after 96 hrs by [3H]-hypoxanthine incorporation assay. In kind it is functional, organism-based.
Data set [3] can be described thus: Cytotoxicity against human NHDF cells assessed as cell viability at 100 uM incubated for 72 hrs by Celltiter-Glo assay. In kind it is cell-based. Conditions: read-out: Activity.
Data set [4] can be described thus: Cytotoxicity against human HepG2 cells assessed as cell viability at 100 uM incubated for 72 hrs by Celltiter-Glo assay. In kind it is cell-based. Conditions: read-out: Activity.
For data set [5], the system named is NHDF. The data set is described as follows: Cytotoxicity against human NHDF cells assessed as reduction in cell viability at 10 uM incubated for 72 hrs by Celltiter-Glo assay. In kind it is cell-based.
Data set [6] can be described thus: Selectivity for antimalarial activity against Plasmodium falciparum over cytotoxicity against human HepG2 cells. In kind it is toxicity, cell-based. Conditions: read-out: Selectivity Index.
A further data set relates to CCRF-CEM. Nature of the data set: Cytotoxicity against human CCRF-CEM cells assessed as reduction in cell viability at 10 uM incubated for 72 hrs by Celltiter-Glo assay. In kind it is cell-based.
A short description of data set [7]: Selectivity for antimalarial activity against Plasmodium falciparum over cytotoxicity against human NHDF cells. To be noted: read-out: Selectivity Index. In kind it is toxicity, cell-based.
For data set [8], the system named is HepG2. The data set is described as follows: Cytotoxicity against human HepG2 cells assessed as reduction in cell viability at 50 uM incubated for 72 hrs by Celltiter-Glo assay. Conditions: hepg2, 72 h. In kind it is cell-based.
Data set [9] has as its system NHDF. The data set is described as follows: Cytotoxicity against human NHDF cells assessed as reduction in cell viability incubated for 72 hrs by Celltiter-Glo assay. In kind it is cell-based.
The test system of data set [10] is HepG2. The data set is described as follows: Cytotoxicity against human HepG2 cells assessed as reduction in cell viability incubated for 72 hrs by Celltiter-Glo assay. In kind it is cell-based. Conditions: HepG2, 72 h.
The subject of data set [11] is HepG2. Nature of the data set: Cytotoxicity against human HepG2 cells assessed as reduction in cell viability at 10 uM incubated for 72 hrs by Celltiter-Glo assay. In kind it is cell-based. To be noted: hepg2, 72 h.
The test system of data set [12] is Plasmodium falciparum. The data set is described as follows: Antimalarial activity against asexual stage of chloroquine-sensitive Plasmodium falciparum D6 infected in human erythrocytes assessed as inhibition of parasite growth measured after 96 hrs by [3H]-hypoxanthine incorporation assay. In kind it is functional, organism-based.
The next data set has as its system HeLa S3. Nature of the data set: Cytotoxicity against human HeLa S3 cells assessed as reduction in cell viability at 10 uM incubated for 72 hrs by Celltiter-Glo assay. In kind it is cell-based. Conditions: hela s3, 72 h.

Take `CCOC(=O)[C@H](Cc1ccccc1)NP(=O)(CCN1CCC[C@H]1Cn1cnc2c(=O)[nH]cnc21)N[C@@H](Cc1ccccc1)C(=O)OCC`: the Activity result in the data set with HL-60, with NHDF [1], in the data set with NHDF [5], with CCRF-CEM, with HepG2 [8] and in the data set with HepG2 [11] was “Non-Toxic” each time. Further, in the data set with HeLa S3, the Activity result is “Non-Toxic”. In addition, the half-maximal inhibitory concentration (IC50) with Plasmodium falciparum [2] was 6.3 µM; in the data set on NHDF [9], 184 µM; in the data set on HepG2 [10], above 250 µM; in the data set on Plasmodium falciparum [12], 4.1 µM. In addition, the viability at 72 h, 100 µM in data set [3] amounted to 117%; in [4], 91%. Further, the selectivity ratio in data set [6] and in [7] was above 29 throughout.
